“And” between values parts separate entries of the source, which are not always exact repeats. Equal entries are not always repeated.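 Values below derive from 48-hour exposures of cells grown in 96-well plates, with endpoints linearly interpolated between the two concentrations bracketing the appropriate inhibition level. The concentration for 50% growth inhibition is given as GI50.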 The source made the active and inactive calls. Cut-off read from the data, not from the text of the source: active = GI50 up to about 1.1 µM and inactive = higher.
How the values were obtained:
Test in all cases: inhibition of tumour cell growth, NCI panel, 48 h
BT-549 = system: BT-549
UACC-257 = system: UACC-257
LOX IMVI = system: LOX IMVI
KM12 = system: KM12
EKVX = system: EKVX
RXF 393 = system: RXF 393
PC-3 = system: PC-3
OVCAR-5 = system: OVCAR-5
SNB-75 = system: SNB-75
SF-268 = system: SF-268
NCI-H460 = system: NCI-H460
Hs-578T = system: Hs-578T
RPMI-8226 = system: RPMI-8226
MOLT-4 = system: MOLT-4
NCI-H226 = system: NCI-H226
HCT-15 = system: HCT-15
SK-MEL-28 = system: SK-MEL-28
HOP-62 = system: HOP-62
SK-MEL-5 = system: SK-MEL-5
OVCAR-8 = system: OVCAR-8

| SMILES | GI50 (BT-549) | GI50 (UACC-257) | GI50 (LOX IMVI) | GI50 (KM12) | GI50 (EKVX) | GI50 (RXF 393) | GI50 (PC-3) | GI50 (OVCAR-5) | GI50 (SNB-75) | GI50 (SF-268) | GI50 (NCI-H460) | GI50 (Hs-578T) | GI50 (RPMI-8226) | GI50 (MOLT-4) | GI50 (NCI-H226) | GI50 (HCT-15) | GI50 (SK-MEL-28) | GI50 (HOP-62) | GI50 (SK-MEL-5) | GI50 (OVCAR-8) |
| --- | --- | --- | --- | --- | --- | --- | --- | --- | --- | --- | --- | --- | --- | --- | --- | --- | --- | --- | --- | --- |
| COc1ccc(C2SC(=N)Nc3c2c(C)nn3C(=O)c2ccccc2O)cc1OC (stereo not given) | 8.91 µM (inactive) | > 10 µM (inactive) | 4.58 µM (inactive) | 6.55 µM (inactive) | > 10 µM (inactive) | 3.61 µM (inactive) | 4.5 µM (inactive) | > 10 µM (inactive) | 3.09 µM (inactive) | 5.32 µM (inactive) | 4.68 µM (inactive) | 1.56 µM (inactive) | 6.28 µM (inactive) | 4.06 µM (inactive) | 4.32 µM (inactive) | 4.78 µM | 9.51 µM (inactive) | 6.92 µM (inactive) |  |  |
| Cc1cccc(C)c1NC(=S)NC=C(C(N)=O)C(N)=O | > 100 µM (inactive) | > 100 µM (inactive) | > 100 µM (inactive) | > 100 µM (inactive) | > 100 µM (inactive) | > 100 µM (inactive) | > 100 µM (inactive) | > 100 µM (inactive) | > 100 µM (inactive) | > 100 µM (inactive) | > 100 µM (inactive) | > 100 µM (inactive) | > 100 µM (inactive) | > 100 µM (inactive) | > 100 µM (inactive) | > 100 µM | > 100 µM (inactive) | > 100 µM (inactive) | > 100 µM (inactive) | > 100 µM (inactive) |
| O=c1oc2ccc3ccccc3c2cc1-c1nc2ccccc2s1 | > 100 µM (inactive) | > 100 µM (inactive) | > 100 µM (inactive) | > 100 µM (inactive) | > 100 µM (inactive) | > 100 µM (inactive) | > 100 µM (inactive) | > 100 µM (inactive) | > 100 µM (inactive) | > 100 µM (inactive) | > 100 µM (inactive) | > 100 µM (inactive) |  |  | > 100 µM (inactive) | > 100 µM | > 100 µM (inactive) | > 100 µM (inactive) | > 100 µM (inactive) | > 100 µM (inactive) |
| CC1=NN(c2cccc(Cl)c2)C2(SCC(=O)N2c2nc3ccccc3s2)/C1=C\c1cccs1 (stereo not given) | 17.6 µM (inactive) | 24.4 µM (inactive) | 23.8 µM (inactive) | 25.8 µM (inactive) | 14.6 µM (inactive) | 20.3 µM (inactive) | 25.5 µM (inactive) | 20.8 µM (inactive) | 17.5 µM (inactive) | 18.9 µM (inactive) | 27.2 µM (inactive) | 22.5 µM (inactive) | 17.7 µM (inactive) | 11.4 µM (inactive) | 20.3 µM (inactive) | 20.7 µM | 29.4 µM (inactive) | 28.2 µM (inactive) | 18.1 µM (inactive) | 20.8 µM (inactive) |
| CN(C)/C=N/C1CCC(C(C)(C)C)CC1 (stereo not given) | 18.5 µM (inactive) | 15.7 µM (inactive) | 15.5 µM (inactive) |  | 22.4 µM (inactive) | 19.2 µM (inactive) | 15.1 µM (inactive) | 17.7 µM (inactive) | 19.5 µM (inactive) | 28.4 µM (inactive) | 16.7 µM (inactive) | 20.7 µM (inactive) |  | 12.9 µM (inactive) | 19.3 µM (inactive) | 17.2 µM | 15.9 µM (inactive) | 17.2 µM (inactive) | 17.3 µM (inactive) | 15.6 µM (inactive) |
| N=C(N)NC(=N)Nc1ccc(S(=O)(=O)O)cc1 | > 100 µM (inactive) | > 100 µM (inactive) | > 100 µM (inactive) | > 100 µM (inactive) | > 100 µM (inactive) | > 100 µM (inactive) | > 100 µM (inactive) | > 100 µM (inactive) | > 100 µM (inactive) | > 100 µM (inactive) | > 100 µM (inactive) | > 100 µM (inactive) | > 100 µM (inactive) |  | > 100 µM (inactive) | > 100 µM | > 100 µM (inactive) | > 100 µM (inactive) | > 100 µM (inactive) | > 100 µM (inactive) |
| CC(C)C(C)C(O)C(O)C(C)C1CCC2C3COC(=O)C4CC(O)C(O)CC4(C)C3CCC12C (stereo not given) | 88.3 µM (inactive) | > 100 µM (inactive) | > 100 µM (inactive) | 50.2 µM (inactive) | 43.7 µM (inactive) | 20.2 µM (inactive) | 46.9 µM (inactive) | > 100 µM (inactive) |  | 79.3 µM (inactive) | 57.9 µM (inactive) | 78.7 µM (inactive) |  | 27.1 µM (inactive) | 23.2 µM (inactive) | 66.1 µM | > 100 µM (inactive) |  | 35 µM (inactive) | 62.8 µM (inactive) |
| O=C1OS2(OC(=O)c3cccc4cccc2c34)c2ccccc21 (stereo not given) | > 100 µM (inactive) | > 100 µM (inactive) | > 100 µM (inactive) | > 100 µM (inactive) | > 100 µM (inactive) | > 100 µM (inactive) | > 100 µM (inactive) | > 100 µM (inactive) |  | > 100 µM (inactive) |  | > 100 µM (inactive) | > 100 µM (inactive) | > 100 µM (inactive) | > 100 µM (inactive) | > 100 µM | > 100 µM (inactive) | > 100 µM (inactive) | > 100 µM (inactive) | > 100 µM (inactive) |
| CC[C@]1(Cc2ccc(OC)c(OC)c2)C=[N+]([O-])O[C@H](OC2CCCC2(c2ccccc2)c2ccccc2)[C@@H]1OC(=O)C(C)(C)C (stereo not given in full) | 4.38 µM (inactive) | 3.5 µM (inactive) | 1.95 µM (inactive) | 2.54 µM (inactive) | 4.61 µM (inactive) | 1.63 µM (inactive) | 3.69 µM (inactive) | 8.71 µM (inactive) | 3.63 µM (inactive) | 3.15 µM (inactive) | 2.69 µM (inactive) | 2.72 µM (inactive) |  | 2.76 µM (inactive) | 3.27 µM (inactive) | 3.08 µM | 2.09 µM (inactive) | 2.49 µM (inactive) | 2.03 µM (inactive) | 2.19 µM (inactive) |
| Nc1ccc2c(O)cc(O)nc2n1 | > 100 µM (inactive) | > 100 µM (inactive) |  | > 100 µM (inactive) | > 100 µM (inactive) | > 100 µM (inactive) | > 100 µM (inactive) | > 100 µM (inactive) | > 100 µM (inactive) | > 100 µM (inactive) | > 100 µM (inactive) | > 100 µM (inactive) | > 100 µM (inactive) | > 100 µM (inactive) | > 100 µM (inactive) | > 100 µM | > 100 µM (inactive) |  | > 100 µM (inactive) | > 100 µM (inactive) |
| COc1cc(-c2oc3c(OC)c(OC)cc(O)c3c(=O)c2OC)ccc1O [TERNATIN] | 5.01 µM (inactive) | > 100 µM (inactive) |  |  | 11.4 µM (inactive) | 6.18 µM (inactive) and 3.87 µM (inactive) | 20.4 µM (inactive) | 34.6 µM (inactive) |  |  |  | 3.93 µM (inactive) |  | 12.7 µM (inactive) |  | 4.54 µM and 6.24 µM |  |  |  | 20.7 µM (inactive) |
| Cc1nnc2n(c1=O)CCCN2C | > 100 µM (inactive) |  | > 100 µM (inactive) | > 100 µM (inactive) | > 100 µM (inactive) | > 100 µM (inactive) | > 100 µM (inactive) | > 100 µM (inactive) | > 100 µM (inactive) | > 100 µM (inactive) | > 100 µM (inactive) | > 100 µM (inactive) | > 100 µM (inactive) | > 100 µM (inactive) | > 100 µM (inactive) | > 100 µM | > 100 µM (inactive) | > 100 µM (inactive) | > 100 µM (inactive) | > 100 µM (inactive) |
| O=c1c2cc([N+](=O)[O-])ccc2oc2nc3n(c(=O)c12)CCCS3 | > 100 µM (inactive) | > 100 µM (inactive) |  | > 100 µM (inactive) | > 100 µM (inactive) | > 100 µM (inactive) | > 100 µM (inactive) | > 100 µM (inactive) | 64.9 µM (inactive) | > 100 µM (inactive) | > 100 µM (inactive) | 56.1 µM (inactive) | > 100 µM (inactive) | > 100 µM (inactive) | > 100 µM (inactive) | > 100 µM | > 100 µM (inactive) | 40.9 µM (inactive) | > 100 µM (inactive) |  |
| Cc1ccc(S(=O)(=O)NC(=O)NNc2ccc(F)cc2)cc1 | > 31.6 µM (inactive) | > 100 µM (inactive) | > 100 µM (inactive) | > 100 µM (inactive) | > 100 µM (inactive) | > 100 µM (inactive) | > 100 µM (inactive) | > 100 µM (inactive) |  | > 100 µM (inactive) | > 100 µM (inactive) | > 100 µM (inactive) | > 27 µM (inactive) | > 100 µM (inactive) | > 100 µM (inactive) | > 100 µM | > 100 µM (inactive) | > 100 µM (inactive) | > 100 µM (inactive) |  |
| COC(=O)C1C(C(=O)OC)C2(OC(c3ccc(Cl)cc3)=CC2=O)C12OC(c1ccc(Cl)cc1)=CC2=O (stereo not given) | 16.4 µM (inactive) | 22.9 µM (inactive) | 23.1 µM (inactive) |  | 22.3 µM (inactive) | 17.5 µM (inactive) | 21.8 µM (inactive) | 24.3 µM (inactive) |  | 24.5 µM (inactive) | 19.8 µM (inactive) | 30.5 µM (inactive) | 7.21 µM (inactive) | 4.45 µM (inactive) | 28.4 µM (inactive) | 16.4 µM | 36.8 µM (inactive) | > 10 µM (inactive) | 19.3 µM (inactive) |  |
| CO[C@@H]1[C@H](O)CC[C@]2(CO2)[C@H]1[C@@]1(C)O[C@@H]1CC=C(C)C | > 200 µM (inactive) |  | 32.7 µM (inactive) | 34.1 µM (inactive) | 165 µM (inactive) | > 200 µM (inactive) | > 200 µM (inactive) | > 200 µM (inactive) | > 200 µM (inactive) | > 200 µM (inactive) | 0.617 µM (active) | > 200 µM (inactive) | 185 µM (inactive) | 80.5 µM (inactive) | > 200 µM (inactive) | 46.1 µM | > 200 µM (inactive) | 58.2 µM (inactive) | > 200 µM (inactive) |  |
